Consider two molecules from US4540664A, “Method of saccharifying cellulose” (The United States of America as represented by the United …, priority 1983, dated 1985).

The test has as its system extracellular cellulase of Clostridium thermocellum ATTC 27405. The experiment in a line: Saccharification of Avicel by desalted cellulase, followed by the decrease in turbidity at 660 nm. It is filed as biochemical. The settings on record: Avicel substrate.

Experimental: In these experiments 50 μg of the protein that had been desalted by passage through the gel filtration resin was incubated with 3 mg of the substrate in 3 ml of substrate buffer. The buffer was 0.1M succinic acid/NaOH with a pH of 5.5. The suspension was diluted to 5 ml. No Ca^2+ was added. The cellulase activity was monitored by the decrease in turbidity of the suspension measured at 660 nm. By this method, the turbidity of the suspension decreases as more cellulose is saccharified, and less light is absorbed.
The reaction conditions were the same as for the samples used in FIG. 1 except that each sample included 5 mM DTT and either no additions, 10 mM EDTA, 7 mM CaCl2, or 7 mM MgCl2.

Turning to `O[C@H](CS)[C@H](O)CS` (racemic) [DTT, dithiothreitol], where the note is “2 mM DTT, no Ca2+ added, pH 5.5, compared with no reducing agent (FIG. 1)”, the “effect of DTT on extent and duration of saccharification” value was “saccharification continues over 90 hours and is much more extensive”. Besides, under “5 mM DTT, no Ca2+ added, pH 5.5 (FIG. 1)”, the “effect of DTT on rate of saccharification” value is “rate of saccharification is greater”.

Turning to `O=C(O)CN(CCN(CC(=O)O)CC(=O)O)CC(=O)O` [EDTA], the “effect of EDTA on saccharification” value (10 mM EDTA, 5 mM DTT, 0.1M succinic acid/NaOH pH 5.5 (FIG. 2)) is “completely inhibits saccharification”.
